Source: article PMC5827430, “Oxidation of the FAD cofactor to the 8-formyl-derivative in human electron-transferring flavoprotein” (The Journal of Biological Chemistry, 2018)
Changes are numbered by the printed parent chain.

How the values were obtained:
[1] = target: T1, hETF (human electron-transferring flavoprotein) (Homo sapiens, UniProt P13804+P38117, P38117:E165A); test: UV-visible absorption; steady-state kinetics of the FAD form; details: purified at pH 7.0
T1 construct: gene ETFA; mature heterodimer from E. coli BL21(DE3), pET-28a+ operon; alpha from Gln-20; N-terminal His6 on beta (tag kept)
T1 sequence (P13804 20-333): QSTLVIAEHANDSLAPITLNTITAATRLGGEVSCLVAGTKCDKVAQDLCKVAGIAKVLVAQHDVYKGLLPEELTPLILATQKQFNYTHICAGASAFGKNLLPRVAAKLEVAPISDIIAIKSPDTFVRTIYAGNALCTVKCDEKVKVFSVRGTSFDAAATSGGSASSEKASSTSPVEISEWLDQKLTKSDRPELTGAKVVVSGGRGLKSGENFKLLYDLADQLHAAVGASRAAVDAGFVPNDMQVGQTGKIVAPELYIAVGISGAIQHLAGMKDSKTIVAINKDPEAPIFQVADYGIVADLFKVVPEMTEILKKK
T1 sequence (P38117 1-255 E165A): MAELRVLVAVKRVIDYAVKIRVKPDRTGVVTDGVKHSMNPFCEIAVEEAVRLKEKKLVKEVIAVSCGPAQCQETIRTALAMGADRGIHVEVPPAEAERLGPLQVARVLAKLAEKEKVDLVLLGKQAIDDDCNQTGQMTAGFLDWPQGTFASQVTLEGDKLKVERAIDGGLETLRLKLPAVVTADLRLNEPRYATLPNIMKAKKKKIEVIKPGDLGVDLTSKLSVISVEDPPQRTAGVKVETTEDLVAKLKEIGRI

[2] = target: T2, hETF (human electron-transferring flavoprotein) (Homo sapiens, UniProt P13804+P38117, P13804:H286A); test: HPLC analysis of extracted cofactor; assay type: binding; details: purified at pH 7.0
T2 construct: gene ETFA; mature heterodimer from E. coli BL21(DE3), pET-28a+ operon; alpha from Gln-20; N-terminal His6 on beta (tag kept)
T2 sequence (P13804 20-333 H286A): T1 sequence (P13804 20-333) with H267A
T2 sequence (P38117 1-255): T1 sequence (P38117 1-255 E165A) with A165E

What does the source list for `Cc1cc2nc3c(=O)[nH]c(=O)nc-3n(C[C@H](O)[C@H](O)[C@H](O)COP(=O)(O)OP(=O)(O)OC[C@H]3O[C@@H](n4cnc5c(N)ncnc54)[C@H](O)[C@@H]3O)c2cc1C` [FAD]?
UV-visible absorption; steady-state kinetics of the FAD form [1]: FAD formylation was absent in the freshly purified variant βE165A; HPLC analysis of extracted cofactor [2]: the FAD cofactor was bound weakly to the αH286A variant
